The values that follow come from US4420488A, “Quaternary 1,1-diphenyl-4-pyrrolidinium-2-butyne salts, a process for their production and medicaments containing these compounds” (Ludwig Heumann & Co. GmbH, priority 1980, dated 1983).

Read-outs that look alike come from different tables or passages of the source.

The test system of one data set is stress ulcer. In words: Anti-ulcerogenic effect, stress ulcer (Takagi, Okabe). Format: in vivo. Particulars: po, i.g. An excerpt:
(§1) The following Table summarizes the results of pharmacological studies conducted with the compound according to the invention, 1,1-diphenyl-4-pyrrolidinyl-2-butyne-1-ol-N-methyl ammonium bromide, and with butynoline phosphate as the comparison substance.
effect i.g. i.g. Jap. J. Pharmac. 18,

In data set [1] the test system is carbachol-induced gastric secretion. In words: Inhibition of the carbachol-induced gastric secretion (Heidenhain cat) (Engler, Fritschi). It counts as in vivo. Particulars: Felis catus, po, i.g.
Text: as §1
0.3 0.3 Schmiedeberg's Arch.
(Heidenhain cat) Pharmacol. 297,

Data set [2] can be described thus: Inhibition of the carbachol-induced secretion of saliva (rat), cholinolytic side effects (mod. Brown, Quinton). To be noted: in vivo, po, i.g.
Text: (§2) As already mentioned, the compounds according to the invention show better pharmacological properties than the known butynoline phosphate, particularly in regard to the broncholytic and anti-ulcerogenic effect obtainable therewith. Tests relating to inhibition of the carbachol-induced secretion of saliva and mydriasis have shown that the compounds according to the invention have fewer side effects than the known butynoline phosphate.
as §1
i.g. i.g. Brown, D. M., Quinton,
24 9.8 R. M., Brit. J. Pharma-

Another data set has as its system ACH. Description: Broncholysis (guinea pig), ACH (Konzett, Rossler). It counts as in vivo. To be noted: Cavia porcellus, iv.
Text: as §1
(§3) ACH 30 ACH 60 Rossler, R.,
(§4) Hi 500 Hi 1000 Arch. exp. Pharmacol.

Data set [3] can be described thus: Mydriasis, cholinolytic side effects (Pulewka). Particulars: in vivo, po, i.g.
Text: as §2, §1
i.g. i.g. exp. Pharmacol.

Another data set deals with Hi. Description: Broncholysis (guinea pig), Hi (Konzett, Rossler). It counts as in vivo. Particulars: Cavia porcellus, iv.
Text: as §1, §3, §4

The target of data set [4] is T1, Mee-ileum (Cavia porcellus).
T1 construct: in vitro (Mee-ileum); from tissue; host or cells: isolated ileum ('Mee-ileum', read as guinea pig ileum)
T1 sequence (H0W1Z3 1-590): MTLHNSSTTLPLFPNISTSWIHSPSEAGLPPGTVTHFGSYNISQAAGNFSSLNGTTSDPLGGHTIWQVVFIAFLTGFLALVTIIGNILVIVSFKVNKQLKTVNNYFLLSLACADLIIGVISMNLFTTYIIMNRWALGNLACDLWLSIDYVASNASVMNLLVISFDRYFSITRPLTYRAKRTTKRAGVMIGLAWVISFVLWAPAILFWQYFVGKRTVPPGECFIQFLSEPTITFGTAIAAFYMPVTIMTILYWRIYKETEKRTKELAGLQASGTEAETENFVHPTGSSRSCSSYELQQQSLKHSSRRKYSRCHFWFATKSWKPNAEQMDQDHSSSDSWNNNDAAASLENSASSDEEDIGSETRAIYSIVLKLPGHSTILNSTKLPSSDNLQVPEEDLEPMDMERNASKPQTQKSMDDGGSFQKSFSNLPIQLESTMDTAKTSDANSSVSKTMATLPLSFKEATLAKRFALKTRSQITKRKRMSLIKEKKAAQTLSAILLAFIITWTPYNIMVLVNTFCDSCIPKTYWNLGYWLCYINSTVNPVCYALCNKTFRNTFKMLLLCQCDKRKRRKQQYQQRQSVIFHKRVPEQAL
Description: Spasmolytic effect in vitro (Mee-ileum) (Van Rossum). Particulars: ACH, read-out: Spasmolytic effect in vitro pA2 (ACH) (converted).
Text: as §1
8.0 8.2 Arch. Int. Pharmaco-

For data set [5] the following is noted: in words; cited from earlier work.

In the case of `C[N+]1(CC#CC(O)(c2ccccc2)c2ccccc2)CCCC1` [1,1-diphenyl-4-pyrrolidinyl-2-butyne-1-ol-N-methyl ammonium bromide], the ED50 was 25 mg/kg in the data set with stress ulcer; 0.3 mg/kg in data set [1] (read-out: Inhibition of the carbachol-induced gastric secretion ED50); 24 mg/kg in data set [2]; 0.03 mg/kg with ACH; 128 mg/kg in data set [3]; 0.5 mg/kg with Hi. Also, in data set [4], the Kb is 10 nM.

For `OC(C#CCN1CCCC1)(c1ccccc1)c1ccccc1` [Butynoline phosphate, phosphate of 1,1-diphenyl-4-pyrrolidino-2-butyne-1-ol], the ED50 amounted to 150 mg/kg with stress ulcer; 0.3 mg/kg in data set [1] (butynoline phosphate column, read-out: Inhibition of the carbachol-induced gastric secretion ED50 (ACH)); 9.8 mg/kg in data set [2]; 0.06 mg/kg in the data set on ACH; 16 mg/kg in data set [3]; 1 mg/kg with Hi. The “pharmacological activity (known)” value in data set [5] is “anti-cholinergic spasmolytic and anti-ulcerogenic activity”. The Kb in data set [4] is 6.31 nM.
